From PubChem BioAssay (NCI)
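Dose response: 5 concentrations. Exposure: 48 h. Format: 96-well plates. Endpoint: linear interpolation; highest concentration if not reached. GI50: concentration for 50% inhibition of growth. At the TGI there is no net growth.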

Assays:
Experiment in all cases: NCI anticancer screen, dose series, 48 h
786-0 renal = test system: 786-0 renal
A498 renal = test system: A498 renal
A549 NSCLC = test system: A549 NSCLC
ACHN renal = test system: ACHN renal
BT-549 breast = test system: BT-549 breast
CAKI-1 renal = test system: CAKI-1 renal
CCRF-CEM leukemia = test system: CCRF-CEM leukemia
COLO 205 colon = test system: COLO 205 colon
DU-145 prostate = test system: DU-145 prostate
EKVX NSCLC = test system: EKVX NSCLC
HCT-116 colon = test system: HCT-116 colon
HCT-15 colon = test system: HCT-15 colon
HL-60(TB) leukemia = test system: HL-60(TB) leukemia
HOP-62 NSCLC = test system: HOP-62 NSCLC
HOP-92 NSCLC = test system: HOP-92 NSCLC
HS 578T breast = test system: HS 578T breast
HT29 colon = test system: HT29 colon
IGROV1 ovarian = test system: IGROV1 ovarian
K-562 leukemia = test system: K-562 leukemia
KM12 colon = test system: KM12 colon
LOX IMVI melanoma = test system: LOX IMVI melanoma
M14 melanoma = test system: M14 melanoma
MALME-3M melanoma = test system: MALME-3M melanoma
MCF7 breast = test system: MCF7 breast
MDA-MB-231 breast = test system: MDA-MB-231 breast
MDA-MB-435 = test system: MDA-MB-435
MOLT-4 leukemia = test system: MOLT-4 leukemia
NCI-H226 lung = test system: NCI-H226 lung
NCI-H23 lung = test system: NCI-H23 lung
NCI-H460 lung = test system: NCI-H460 lung
NCI-H522 lung = test system: NCI-H522 lung
NCI/ADR-RES ovarian = test system: NCI/ADR-RES ovarian
OVCAR-3 ovarian = test system: OVCAR-3 ovarian
OVCAR-4 ovarian = test system: OVCAR-4 ovarian
OVCAR-5 ovarian = test system: OVCAR-5 ovarian
OVCAR-8 ovarian = test system: OVCAR-8 ovarian
PC-3 prostate = test system: PC-3 prostate
RPMI-8226 leukemia = test system: RPMI-8226 leukemia
RXF 393 renal = test system: RXF 393 renal
SF-268 CNS = test system: SF-268 CNS
SF-295 CNS = test system: SF-295 CNS
SF-539 CNS = test system: SF-539 CNS
SK-MEL-2 melanoma = test system: SK-MEL-2 melanoma
SK-MEL-28 melanoma = test system: SK-MEL-28 melanoma
SK-MEL-5 melanoma = test system: SK-MEL-5 melanoma
SK-OV-3 ovarian = test system: SK-OV-3 ovarian
SN12C renal = test system: SN12C renal
SNB-19 CNS = test system: SNB-19 CNS
SNB-75 CNS = test system: SNB-75 CNS
SR leukemia = test system: SR leukemia
SW-620 colon = test system: SW-620 colon
T-47D breast = test system: T-47D breast
TK-10 renal = test system: TK-10 renal
U251 CNS = test system: U251 CNS
UACC-257 melanoma = test system: UACC-257 melanoma
UACC-62 melanoma = test system: UACC-62 melanoma
UO-31 renal = test system: UO-31 renal

CN(C)CCNC(=O)c1cc2c3cc(Cl)ccc3[nH]c2c2ncccc12
GI50 (786-0 renal): 4.83 µM | TGI (786-0 renal): 18.1 µM | GI50 (A498 renal): 3.52 µM | TGI (A498 renal): 13.1 µM | GI50 (A549 NSCLC): 1.93 µM | TGI (A549 NSCLC): 4.7 µM | GI50 (ACHN renal): 1.62 µM | TGI (ACHN renal): 6.98 µM | GI50 (BT-549 breast): 2.26 µM | TGI (BT-549 breast): 7.98 µM | GI50 (CAKI-1 renal): 3.52 µM | TGI (CAKI-1 renal): 19.6 µM | GI50 (CCRF-CEM leukemia): 2.09 µM | TGI (CCRF-CEM leukemia): 5.47 µM | GI50 (COLO 205 colon): 1.97 µM | TGI (COLO 205 colon): 10.5 µM | GI50 (DU-145 prostate): 3.4 µM | TGI (DU-145 prostate): 12.7 µM | GI50 (EKVX NSCLC): 2.8 µM | TGI (EKVX NSCLC): 12.7 µM | GI50 (HCT-116 colon): 1.52 µM | TGI (HCT-116 colon): 4.68 µM | GI50 (HCT-15 colon): 1.84 µM | TGI (HCT-15 colon): 4.9 µM | GI50 (HL-60(TB) leukemia): 1.97 µM | TGI (HL-60(TB) leukemia): 4.02 µM | GI50 (HOP-62 NSCLC): 5.85 µM | TGI (HOP-62 NSCLC): 19.1 µM | GI50 (HOP-92 NSCLC): 2.36 µM | TGI (HOP-92 NSCLC): 11.2 µM | GI50 (HS 578T breast): 1.87 µM | TGI (HS 578T breast): 9.66 µM | GI50 (HT29 colon): 2.33 µM | TGI (HT29 colon): 10.3 µM | GI50 (IGROV1 ovarian): 1.52 µM | TGI (IGROV1 ovarian): 4.34 µM | GI50 (K-562 leukemia): 1.68 µM | TGI (K-562 leukemia): 3.98 µM | GI50 (KM12 colon): 3.03 µM | TGI (KM12 colon): 13.7 µM | GI50 (LOX IMVI melanoma): 1.51 µM | TGI (LOX IMVI melanoma): 2.92 µM | GI50 (M14 melanoma): 1.7 µM | TGI (M14 melanoma): 3.68 µM | GI50 (MALME-3M melanoma): 1.89 µM | TGI (MALME-3M melanoma): 3.94 µM | GI50 (MCF7 breast): 1.8 µM | TGI (MCF7 breast): 4.78 µM | GI50 (MDA-MB-231 breast): 1.98 µM | TGI (MDA-MB-231 breast): 9.77 µM | GI50 (MDA-MB-435): 1.95 µM | TGI (MDA-MB-435): 4.22 µM | GI50 (MOLT-4 leukemia): 1.54 µM | TGI (MOLT-4 leukemia): 4.27 µM | GI50 (NCI-H226 lung): 4.04 µM | TGI (NCI-H226 lung): 16.7 µM | GI50 (NCI-H23 lung): 6.31 µM | TGI (NCI-H23 lung): 23.4 µM | GI50 (NCI-H460 lung): 2.57 µM | TGI (NCI-H460 lung): 10.7 µM | GI50 (NCI-H522 lung): 2.26 µM | TGI (NCI-H522 lung): 7.11 µM | GI50 (NCI/ADR-RES ovarian): 5.4 µM | TGI (NCI/ADR-RES ovarian): 20.8 µM | GI50 (OVCAR-3 ovarian): 11.1 µM | TGI (OVCAR-3 ovarian): 29.6 µM | GI50 (OVCAR-4 ovarian): 4.89 µM | TGI (OVCAR-4 ovarian): 19.6 µM | GI50 (OVCAR-5 ovarian): 11.9 µM | TGI (OVCAR-5 ovarian): 27.4 µM | GI50 (OVCAR-8 ovarian): 2.57 µM | TGI (OVCAR-8 ovarian): 12.7 µM | GI50 (PC-3 prostate): 3.62 µM | TGI (PC-3 prostate): 14.8 µM | GI50 (RPMI-8226 leukemia): 1.78 µM | TGI (RPMI-8226 leukemia): 3.84 µM | GI50 (RXF 393 renal): 1.74 µM | TGI (RXF 393 renal): 4.28 µM | GI50 (SF-268 CNS): 2.81 µM | TGI (SF-268 CNS): 11.8 µM | GI50 (SF-295 CNS): 22.8 µM | TGI (SF-295 CNS): 59.6 µM | GI50 (SF-539 CNS): 1.57 µM | TGI (SF-539 CNS): 3.14 µM | GI50 (SK-MEL-2 melanoma): 4.2 µM | TGI (SK-MEL-2 melanoma): 20.1 µM | GI50 (SK-MEL-28 melanoma): 2.12 µM | TGI (SK-MEL-28 melanoma): 4.18 µM | GI50 (SK-MEL-5 melanoma): 1.34 µM | TGI (SK-MEL-5 melanoma): 2.69 µM | GI50 (SK-OV-3 ovarian): 6.89 µM | TGI (SK-OV-3 ovarian): 24.4 µM | GI50 (SN12C renal): 2.9 µM | TGI (SN12C renal): 13.4 µM | GI50 (SNB-19 CNS): 4.52 µM | TGI (SNB-19 CNS): 19.7 µM | GI50 (SNB-75 CNS): 3.85 µM | TGI (SNB-75 CNS): 15.8 µM | GI50 (SR leukemia): 1.68 µM | TGI (SR leukemia): 4.1 µM | GI50 (SW-620 colon): 1.47 µM | TGI (SW-620 colon): 3.52 µM | GI50 (T-47D breast): 3.8 µM | TGI (T-47D breast): 17.8 µM | GI50 (TK-10 renal): 3.81 µM | TGI (TK-10 renal): 13.4 µM | GI50 (U251 CNS): 2.49 µM | TGI (U251 CNS): 9.45 µM | GI50 (UACC-257 melanoma): 3.92 µM | TGI (UACC-257 melanoma): 14.9 µM | GI50 (UACC-62 melanoma): 1.94 µM | TGI (UACC-62 melanoma): 3.77 µM | GI50 (UO-31 renal): 1.1 µM | TGI (UO-31 renal): 2.49 µM
